According to ChEMBL document CHEMBL1140399, “Synthesis and evaluation of 3-anilino-quinoxalinones as glycogen phosphorylase inhibitors” (Bioorg Med Chem Lett, 2005):

Experiments:
Mus musculus [1] = assay: Blood glucose levels in mice was measured using glucometer after 8 hours of compound administration at 30 mg/kg body weight via oral gavage
Mus musculus [2] = assay: Blood glucose levels in mice was measured using glucometer after 1 hours of compound administration at 30 mg/kg body weight via oral gavage
Mus musculus [3] = assay: Blood glucose levels in mice was measured using glucometer after 2 hours of compound administration at 30 mg/kg body weight via oral gavage
Mus musculus [4] = assay: Blood glucose levels in mice was measured using glucometer after 4 hours of compound administration at 30 mg/kg body weight via oral gavage
Mus musculus [5] = assay: Blood glucose levels in mice was measured using glucometer after 0 hours of compound administration at 30 mg/kg body weight via oral gavage

Compound `Cn1c(=O)c(Nc2ccc(C(=O)NCc3cccs3)cc2)nc2ccccc21` has a Blood glucose level (Mus musculus [1]) of 224.9, a Blood glucose level (Mus musculus [2]) of 306.4 and a Blood glucose level (Mus musculus [3]) of 351.3. For the same compound, the Blood glucose level (Mus musculus [4]) was 313.3 and the Blood glucose level (Mus musculus [5]) was 334.
In the case of `CCn1c(=O)c(Nc2ccc(C(=O)NCc3cccs3)cc2)nc2ccccc21`, the Blood glucose level (Mus musculus [1]) is reported as 325.9, the Blood glucose level (Mus musculus [2]) is reported as 349.1 and the Blood glucose level (Mus musculus [3]) is reported as 338.4. For the same compound, the Blood glucose level (Mus musculus [4]) was 383.3 and the Blood glucose level (Mus musculus [5]) was 320.3.
Compound `Cn1c(=O)c(Nc2ccc(C(=O)NCc3cccs3)cc2)nc2cccnc21` has a Blood glucose level (Mus musculus [1]) of 328.4, a Blood glucose level (Mus musculus [2]) of 305.4 and a Blood glucose level (Mus musculus [3]) of 356. For the same compound, the Blood glucose level (Mus musculus [4]) was 362.5 and the Blood glucose level (Mus musculus [5]) was 357.4.
